US6448240B1, “Synergistic fungicidal and/or bactericidal composition” (Aventis CropScience, S.A., priority 1997, dated 2002)

Tested on: Plasmopara viticola (grapevine downy mildew)
Assay: In-vivo test of famoxadone and fosetyl-aluminium on grapevine downy mildew, preventative treatment 5 days before inoculation
Design: species or system Plasmopara viticola on Vitis vinifera cv. Chardonnay
Settings: 5-day-preventative spray on grapevine cuttings; evaluated 7 days after inoculation; 3 replications
Description: Example 1: In-vivo test of the combination of famoxadone and fosetyl-aluminium on Plasmopara viticola (grapevine downy mildew) by preventative treatment 5 days before inoculation. Dispersible granules of 50% compound A (famoxadone) and dispersible granules of 80% compound B (fosetyl-aluminium) are used. Dilute suspensions are prepared from these compositions by diluting them with water, and the two liquids are mixed in such a way that different ratios of the two products famoxadone and fosetyl are obtained. The A/B ratios studied were selected between 1/10 and 1/1, that is to say equalling 0.1-0.2 and 1. Grapevine cuttings (Vitis vinifera), cv. Chardonnay are grown in pots. When these plants are 2 months old (8- to 10-leaf stage, height 10 to 15 cm), they are treated by being sprayed with the suspension above. […] These spores are suspended at 100,000 units per cm^3 of inoculum. Inoculation is performed by spraying the underside of the leaves with the inoculum. The inoculated plants are then incubated for seven days at 20-22° C. and a relative humidity of 90-100% under natural light. The test is evaluated 7 days after inoculation by comparing the plants with the control plants.

Structure (SMILES) | ED70 (effective dose which has a 70% control effect on the disease) | ED90 (effective dose which has a 90% control effect on the disease)
C[C@@]1(c2ccc(Oc3ccccc3)cc2)OC(=O)N(Nc2ccccc2)C1=O (racemic) [famoxadone, 5-methyl-5-(4-phenoxyphenyl)-3-(phenylamino-2,4-oxazolidinedione)] | 2 µg/mL | 5.5 µg/mL
CCO[PH](=O)O [fosetyl - aluminium, fosetyl-aluminium] | >2000 µg/mL | >2000 µg/mL
